We go through one compound from article PMC10594875, “One-Pot De Novo Synthesis of [4Fe-4S] Proteins Using a Recombinant SUF System under Aerobic Conditions” (ACS Synthetic Biology, 2023).

In the experiment the target is T1, Aconitase (AcnA) (Escherichia coli, UniProt P25516).
T1 construct: cell-free (PUREfrex) synthesis, N-His6 tag removed with HRV protease, [4Fe-4S] cluster matured by SUF system
As to the kind of experiment: LC-MS of citrate consumption, isocitrate dehydrogenase-coupled. Format: biochemical. The following applies: coupled with NADP-dependent isocitrate dehydrogenase.

T1 sequence (P25516 2-891): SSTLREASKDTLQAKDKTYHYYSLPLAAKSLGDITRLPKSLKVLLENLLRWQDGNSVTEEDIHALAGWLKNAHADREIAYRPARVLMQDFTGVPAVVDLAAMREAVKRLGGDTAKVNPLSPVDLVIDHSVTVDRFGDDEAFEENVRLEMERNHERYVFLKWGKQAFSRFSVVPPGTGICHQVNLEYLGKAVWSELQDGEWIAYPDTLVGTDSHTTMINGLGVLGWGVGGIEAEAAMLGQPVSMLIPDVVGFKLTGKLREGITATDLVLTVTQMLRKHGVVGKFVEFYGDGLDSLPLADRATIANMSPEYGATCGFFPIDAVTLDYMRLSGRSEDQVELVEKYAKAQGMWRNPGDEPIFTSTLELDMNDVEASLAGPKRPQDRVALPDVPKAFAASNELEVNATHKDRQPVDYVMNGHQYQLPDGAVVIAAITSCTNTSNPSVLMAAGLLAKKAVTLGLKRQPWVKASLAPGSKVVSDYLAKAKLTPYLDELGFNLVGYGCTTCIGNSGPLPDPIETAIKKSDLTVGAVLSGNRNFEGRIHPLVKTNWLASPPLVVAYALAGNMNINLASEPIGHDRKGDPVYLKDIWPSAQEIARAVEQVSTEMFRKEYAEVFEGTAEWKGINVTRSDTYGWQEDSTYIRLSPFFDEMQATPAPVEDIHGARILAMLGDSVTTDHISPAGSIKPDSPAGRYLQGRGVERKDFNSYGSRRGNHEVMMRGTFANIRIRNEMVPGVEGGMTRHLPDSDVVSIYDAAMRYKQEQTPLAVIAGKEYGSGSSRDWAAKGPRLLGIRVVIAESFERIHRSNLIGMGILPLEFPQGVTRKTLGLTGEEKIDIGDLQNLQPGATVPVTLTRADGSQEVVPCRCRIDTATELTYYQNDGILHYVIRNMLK

As to `O=C(O)CC(O)(CC(=O)O)C(=O)O` [citrate], the “LC-MS of citrate consumption, isocitrate dehydrogenase-coupled” value is “concurring citrate consumption and alpha-ketoglutarate production in the assays with AcnA purified”.
